Converted amounts (≈) assume the structure as drawn.
What was measured:
Vines = conditions: VN, 4000 ppm, 2-3 weeks
Procedure: (§1) The compounds were tested for plant growth regulator activity against up to tweleve plant species for various growth effects relevant to plant growth regulation.
(§2) Each chemical was applied at 4000 ppm (4 kg/ha in a 1000 l/ha field volume) using a tracksprayer and a SS8004E (Teejet) nozzle.
(§3) After spray, the plants were grown in a glasshouse with 25° C. day/22° C. night temperatures and supplementary lighting was supplied when necessary (from mercury vapour lamps), to provide a 16 hour photoperiod. The exception to this were the temperate cereals, wheat and barley, which were grown in 16° C. day 13° C. night temperatures
(§4) After 2-3 weeks in the glasshouse, depending on the time of year, the plants were visually assessed for morphological characteristics. Formulations blanks were used as controls to assess the Plants.

Barley = conditions: BR, 4000 ppm, 2-3 weeks
Solubility in water = format: physicochemical
Sugar beet = conditions: SB, 4000 ppm, 2-3 weeks
Procedure: as §1, §2, §3, §4

Maize = conditions: MZ, 4000 ppm, 2-3 weeks
Procedure: as §1, §2, §3, §4

Radish = conditions: RA, 4000 ppm, 2-3 weeks
Procedure: as §1, §2, §3, §4

[1] = tested on: plants (broad species spectrum); assay: Overall plant growth regulating effects in the Examples; format: in vivo; conditions: 1000 ppm rate
Cynosurus cristatus = conditions: CC, 4000 ppm, 2-3 weeks
Procedure: as §1, §2, §3, §4

Half life in soil = format: physicochemical
Lettuce = conditions: LT, 4000 ppm, 2-3 weeks
Procedure: as §1, §2, §3, §4

For `CCCCC#CC(O)(Cn1cncn1)C(C)(C)C` (stereo not shown) [Compound 1, 2,2-dimethyl-3-hydroxy-3-(hex-1-yne-1-yl)-4-(1,2,4-triazol-1-yl)-butane], the “Retardation score (1-3) with greening (G), apical damage (A), tillering/side shooting (T)” value (from here on “Retardation score … tillering/side shooting (T)”) (Vines) was 1GT, the “Retardation score … tillering/side shooting (T)” value (Barley) was 3T and the solubility (Solubility in water) was 1900 µg/mL (≈ 7.62 mM). For the same compound, the “Retardation score … tillering/side shooting (T)” value (Sugar beet) was 1G, the “Retardation score … tillering/side shooting (T)” value (Maize) was 2GA and the “Retardation score … tillering/side shooting (T)” value (Radish) was 2G. The “retardant activity on barley and rice versus apples” value [1] was “considerably more active as a cereal retardant on barley and rice than as a woody species retardant on apples”, the “Retardation score … tillering/side shooting (T)” value (Cynosurus cristatus) was 2G and the half-life (Half life in soil) was 7 to 14 days.
For `CC(C)CC#CC(O)(Cn1cncn1)C(C)(C)C` (stereo not shown) [Compound 7, 2,2-dimethyl-3-hydroxy-3-(4-methyl-pent-1-yne-1-yl)-4-(1,2,4-triazol-1-yl)-butane], the “Retardation score … tillering/side shooting (T)” value (Barley) was 2GT, the “Retardation score … tillering/side shooting (T)” value (Sugar beet) was 1G and the “Retardation score … tillering/side shooting (T)” value (Lettuce) was 1G. The “Retardation score … tillering/side shooting (T)” value (Cynosurus cristatus) was 2G.

Source: patent publication US4895589A, “Heterocyclic compounds” (Imperial Chemical Industries PLC, priority 1985, dated 1990)
